Experiments:
[1] = tested on: M-Type antigen (SARS coronavirus protein antigen, ProSci); assay type: binding
[2] = tested on: E-type antigen (SARS coronavirus protein antigen, ProSci); assay type: binding

Row | Substance | M (mean value) [1] | M-Type Ranking [1] | E Value [2] | E-Type Ranking [2]
1 | Asp-Ser | 0.087 | 11 | 0.132 | 25
2 | Tyr-Gln | 0.069 | 25 | 0.122 | 27
3 | Phe-Trp | 0.071 | 22 | 0.159 | 14
4 | Phe-Arg | 0.080 | 13 | 0.167 | 11
5 | Glu-Asp | 0.186 | 1 | 0.552 | 1
6 | Ser-Glu | 0.073 | 20 | 0.135 | 24
7 | Phe-Leu | 0.061 | 27 | 0.198 | 6
8 | Trp-Phe | 0.069 | 23 | 0.148 | 20
9 | Cys-Glu | 0.143 | 4 | 0.356 | 3
10 | Arg-Phe | 0.072 | 21 | 0.183 | 9
11 | Ser-Asp | 0.091 | 9 | 0.136 | 23
12 | Asp-Cys | 0.114 | 5 | 0.238 | 5
13 | Trp-Gln | 0.073 | 19 | 0.155 | 15
14 | Glu-Ser | 0.111 | 6 | 0.198 | 6
15 | Ser-Cys | 0.087 | 12 | 0.149 | 19
16 | Phe-Tyr | 0.078 | 15 | 0.127 | 26
17 | Phe-Met | 0.059 | 29 | 0.190 | 8
18 | Lys-Phe | 0.080 | 14 | 0.154 | 16
19 | Phe-Phe | 0.059 | 28 | 0.116 | 29
20 | Ala-Ile | 0.057 | 30 | 0.154 | 17
21 | Ile-Met | 0.074 | 18 | 0.139 | 22
22 | Val-Ala | 0.077 | 17 | 0.118 | 28
23 | Leu-Val | 0.088 | 10 | 0.147 | 21
24 | Val-Met | 0.094 | 7 | 0.151 | 18
25 | Tyr-Trp | 0.063 | 26 | 0.090 | 30
26 | Asp-Glu | 0.169 | 2 | 0.520 | 2
27 | Cys-Phe | 0.069 | 24 | 0.165 | 13
28 | Gln-Trp | 0.093 | 8 | 0.166 | 12
29 | Cys-Asp | 0.144 | 3 | 0.326 | 4

Source: patent publication US20100304363A1 (E[…] TELECOMM[…] INSTITUTE, priority 2009, published 2010)
